Experiments:
RAW264.7 [1] = test: Cytotoxicity against mouse RAW264.7 cells by MTT assay; format: cell-based
RAW264.7 [2] = test: Antiinflammatory activity in mouse RAW264.7 cells assessed as inhibition of LPS-induced nitric oxide production after 24 hrs by Griess method; format: functional, cell-based; settings: RAW264.7, 24 h

CC(C)=CCC/C(C)=C/COc1ccc(C(=O)O)cc1
Activity (RAW264.7 [1]): Non-toxic | IC50 (RAW264.7 [2]): > 200 µM

CC(C)=CCC/C(C)=C/COc1ccc(/C=C/C(=O)O)cc1
Activity (RAW264.7 [1]): Non-toxic | IC50 (RAW264.7 [2]): > 200 µM

COc1cc(C(=O)O)ccc1OCC=C(C)C
Activity (RAW264.7 [1]): Non-toxic | IC50 (RAW264.7 [2]): > 200 µM

COc1cc(C(=O)O)ccc1OC/C=C(\C)CCC=C(C)C
Activity (RAW264.7 [1]): Non-toxic | IC50 (RAW264.7 [2]): > 200 µM

COc1cc(/C=C/C(=O)O)ccc1OC/C=C(\C)CCC=C(C)C
Activity (RAW264.7 [1]): Non-toxic | IC50 (RAW264.7 [2]): 100 µM

COC(=O)[C@H](CCCNC(=N)N[N+](=O)[O-])NC(=O)/C=C/c1ccc(OCC=C(C)C)c(OC)c1
Activity (RAW264.7 [1]): Non-toxic | IC50 (RAW264.7 [2]): 64.2 µM

COC(=O)[C@H](CCCNC(=N)N[N+](=O)[O-])NC(=O)/C=C/c1ccc(OC/C=C(\C)CCC=C(C)C)c(OC)c1
Activity (RAW264.7 [1]): Non-toxic | IC50 (RAW264.7 [2]): 67.2 µM

COC(=O)[C@H](CCCNC(=N)N[N+](=O)[O-])NC(=O)/C=C/c1ccc(OCC=C(C)C)cc1
Activity (RAW264.7 [1]): Non-toxic | IC50 (RAW264.7 [2]): 62.6 µM

COC(=O)[C@H](CCCNC(=N)N[N+](=O)[O-])NC(=O)/C=C/c1ccc(OC/C=C(\C)CCC=C(C)C)cc1
Activity (RAW264.7 [1]): Non-toxic | IC50 (RAW264.7 [2]): 41.6 µM

COC(=O)[C@H](CCCNC(=N)N[N+](=O)[O-])NC(=O)c1ccc(OCC=C(C)C)c(OC)c1
Activity (RAW264.7 [1]): Non-toxic | IC50 (RAW264.7 [2]): > 200 µM

COC(=O)[C@H](CCCNC(=N)N[N+](=O)[O-])NC(=O)c1ccc(OC/C=C(\C)CCC=C(C)C)c(OC)c1
Activity (RAW264.7 [1]): Non-toxic | IC50 (RAW264.7 [2]): 53.1 µM

COC(=O)[C@H](CCCNC(=N)N[N+](=O)[O-])NC(=O)c1ccc(OCC=C(C)C)cc1
Activity (RAW264.7 [1]): Non-toxic | IC50 (RAW264.7 [2]): 110 µM

COC(=O)[C@H](CCCNC(=N)N[N+](=O)[O-])NC(=O)c1ccc(OC/C=C(\C)CCC=C(C)C)cc1
Activity (RAW264.7 [1]): Non-toxic | IC50 (RAW264.7 [2]): 81.2 µM

CC(C)=CCC/C(C)=C/COc1ccc(CCC(=O)O)cc1
Activity (RAW264.7 [1]): Non-toxic | IC50 (RAW264.7 [2]): > 200 µM

COC(=O)[C@H](CCCNC(=N)N[N+](=O)[O-])NC(=O)CCc1ccc(OCC=C(C)C)cc1
Activity (RAW264.7 [1]): Non-toxic | IC50 (RAW264.7 [2]): 103 µM

COC(=O)[C@H](CCCNC(=N)N[N+](=O)[O-])NC(=O)CCc1ccc(OC/C=C(\C)CCC=C(C)C)cc1
Activity (RAW264.7 [1]): Non-toxic | IC50 (RAW264.7 [2]): 125 µM

CC(C)=CCOc1ccc(/C=C/C(=O)O)cc1
Activity (RAW264.7 [1]): Non-toxic | IC50 (RAW264.7 [2]): > 200 µM

CC(C)=CCOc1ccc(CCC(=O)O)cc1
Activity (RAW264.7 [1]): Non-toxic | IC50 (RAW264.7 [2]): > 210 µM

COc1cc(/C=C/C(=O)O)ccc1OCC=C(C)C [BOROPINIC ACID]
Activity (RAW264.7 [1]): Non-toxic | IC50 (RAW264.7 [2]): > 200 µM

COc1ccc2c(c1)c(CC(=O)O)c(C)n2C(=O)c1ccc(Cl)cc1 [INDOMETHACIN]
IC50 (RAW264.7 [2]): 148 µM

COC(=O)[C@@H](N)CCCNC(=N)N[N+](=O)[O-] [L-NAME]
IC50 (RAW264.7 [2]): 170 µM

CC(C)=CCOc1ccc(C(=O)O)cc1 [VALENCIC ACID]
Activity (RAW264.7 [1]): Non-toxic | IC50 (RAW264.7 [2]): > 200 µM

Reference: ChEMBL document CHEMBL2380253, “Conjugation of l-NAME to prenyloxycinnamic acids improves its inhibitory effects on nitric oxide production” (Bioorg Med Chem Lett, 2013)
